Columns and labels:
[1] = biological target: T1, TkLbpA1 (lipoate-binding protein LbpA1, TK90_0638) (Thioalkalivibrio sp. K90mix, UniProt D3SF86); test: MALDI mass spectrometry of enzymatic lipoylation; conditions: covalent; lipoyl group attached to apo-protein by TkLplA with ATP, 37 °C
T1 construct: Strep- or His-tagged (pET22b), made in E. coli as apoprotein
T1 sequence (D3SF86 1-148): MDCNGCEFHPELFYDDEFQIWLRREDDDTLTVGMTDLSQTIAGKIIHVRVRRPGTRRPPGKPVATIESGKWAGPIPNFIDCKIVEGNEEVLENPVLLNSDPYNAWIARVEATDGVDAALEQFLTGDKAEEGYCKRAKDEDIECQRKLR

[2] = biological target: T2, TkLplA (LplA-like lipoate-protein ligase, TK90_0642) (Thioalkalivibrio sp. K90mix, UniProt D3SF90); test: TLC of lipoyl-AMP from [alpha-32P]ATP; MALDI of lipoylated acceptor; type: biochemical; conditions: Mg2+, 50 mM sodium phosphate pH 7.8, 37 °C (adenylation), acceptors TkLbpA1 and TkLbpA2
T2 construct: Strep- or His-tagged (pET22b), made in E. coli; single-domain ligase lacking the small domain
T2 sequence (D3SF90 1-363): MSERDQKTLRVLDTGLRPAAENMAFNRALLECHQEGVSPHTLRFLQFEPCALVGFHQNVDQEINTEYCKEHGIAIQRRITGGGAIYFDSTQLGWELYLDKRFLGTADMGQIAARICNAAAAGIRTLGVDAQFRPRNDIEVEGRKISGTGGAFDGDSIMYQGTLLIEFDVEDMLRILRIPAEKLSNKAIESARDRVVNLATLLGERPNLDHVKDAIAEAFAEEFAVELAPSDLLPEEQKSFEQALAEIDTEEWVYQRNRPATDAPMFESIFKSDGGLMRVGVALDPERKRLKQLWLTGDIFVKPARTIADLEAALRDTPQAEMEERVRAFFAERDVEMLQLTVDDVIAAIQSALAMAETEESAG

[3] = biological target: T3, TkLbpA2 (lipoate-binding protein LbpA2, TK90_0640) (Thioalkalivibrio sp. K90mix, UniProt D3SF88); test: MALDI mass spectrometry of enzymatic lipoylation; conditions: covalent; lipoyl group attached to apo-protein by TkLplA with ATP, 37 °C
T3 construct: gene gcvH; Strep- or His-tagged (pET22b), made in E. coli as apoprotein
T3 sequence (D3SF88 1-145): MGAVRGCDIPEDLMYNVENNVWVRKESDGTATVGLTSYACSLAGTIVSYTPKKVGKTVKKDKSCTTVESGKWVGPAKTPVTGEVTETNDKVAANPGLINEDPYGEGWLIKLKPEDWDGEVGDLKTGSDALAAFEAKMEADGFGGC

For `O=C(O)CCCC[C@@H]1CCSS1` (racemic) [lipoic acid, 1,2-dithiolane-3-pentanoic acid], the “MALDI mass spectrometry of enzymatic lipoylation” value [1] was “The overall lipoate ligase activity of LplA-like proteins was confirmed by mass spectrometry”, the “TLC of lipoyl-AMP from [alpha-32P]ATP; MALDI of lipoylated acceptor” value [2] was “synthesis of both octanoyl-adenylate and lipoyl-adenylate intermediates were readily demonstrated” and the “MALDI mass spectrometry of enzymatic lipoylation” value [3] was “The overall lipoate ligase activity of LplA-like proteins was confirmed by mass spectrometry”.
